The results in this text go back to patent US20150265682A1, “THERAPEUTIC METHODS AND COMPOSITIONS FOR TREATING DIABETES” (Orient Europharma Co., Ltd., priority 2014, published 2015).

Assay [1] relates to liver of normal, type 1 DM and type 2 DM mice. Nature of the assay: Glycogen content in liver in vivo (borapetoside A). Also noted: species or system ICR mice. As to conditions: borapetoside A 10 mgkg^−1 i.p. 60 minutes, insulin 0.5 IUkg^−1. The procedure:
After three days of acclimatization, the mice had free access to a standard rodent chow (normal mice), a standard rodent chow after single […] streptozotocin (STZ) intraperitoneal injection (T1DM mice), and a fat-rich chow diet and fructose-sweetened water (T2DM mice) for 4 weeks. The induction of Type 1 DM was assessed and confirmed when the mice had plasma glucose levels ≧350 mgdL^−1, accompanied with polyuria, hyperphagia and decreased body weight. The induction Type 2 DM in the mice was assessed by measuring fasting plasma glucose levels and confirmed when plasma glucose level was ≧150 mgdL^−1 after the 4-week induction. The animals were assigned randomly into three groups, with seven animals in each group. In group I, the mice were treated with vehicle, 2% DMSO in normal saline, as the negative control. In group II, the mice were intraperitoneally treated with borapetoside A (0.1-10 mgkg^−1). In group Ill, the positive control, the mice received intraperitoneally metformin (300 mgkg^−1; Sigma Chemical Co., St. Louis, Mo., U.S.A.) or insulin (0.5 IUkg^−1; Insulin Actrapid® HM; Novo Nordisk, Denmark). In the acute study, mice under anesthesia received a single intraperitoneal administration of borapetoside A, negative control, or positive control. In the subacute study, mice received intraperitoneal administrations of borapetoside A, vehicle, or insulin twice a day for seven days.
The mice were injected with borapetoside A (10 mgkg^−1, interperitoneal) for 60 minutes or insulin (0.5 IUkg^−1, interperitoneal) for 30 minutes. After the treatment, the anesthetic mice were sacrificed by cervical dislocation to collect the soleus muscle and liver. About 40 mg of each sample was dissolved in 1 mol/L KOH at 75° C. for 30 min. The dissolved homogenate was neutralized by glacial acetic acid and then incubated overnight in acetate buffer (0.3 mol/L sodium acetate, pH 4.8) containing amyloglucosidase (Sigma, St. Louis, Mo.). The mixture was then neutralized with 1 mol/L NaOH to stop the reaction. The glycogen contents in the tissue samples were determined as μg of glucose per mg of tissue (wet weight).

For assay [2], the system named is normal, T1DM and T2DM mice. Nature of the assay: Insulin tolerance test (ITT): activity of lowering plasma glucose (AL). Format: in vivo, ICR mice. As to conditions: 30 min after insulin. On the procedure: (§1) T1DM mice were induced by a known method. In brief, an intraperitoneal injection of streptozotocin (STZ; Sigma Chemical Co.; St. Louis, Mo.) at 150 mg/kg was performed in mice that were fasted for 48 h. The induction of T1DM was assessed and confirmed when the mice had plasma glucose levels ≧350 mg/dL, accompanied with polyuria, hyperphagia and decreased body weight. The control mice group received an injection of vehicle and then carried out for 4 weeks. T2DM mice were induced by maintaining on a fat-rich chow diet and fructose-sweetened water for 4 weeks from the age of 4-5 weeks according to previous methods. The induction T2DM mice were assessed by measuring fasting plasma glucose levels and confirmed when plasma glucose level was ≧150 mg/dL after a 4-week induction.
Blood samples were collected from the orbital vascular plexus of mice under anesthesia with sodium pentobarbital (80 mg/kg, intraperitoneal, Sigma Chemical Co., St. Louis, Mo., USA). Blood samples were then centrifuged at 13000 rpm for 5 min, and the plasma was kept on ice prior to the assay. The plasma glucose concentration was measured using commercial kits following manufacturer's instructions (BioSystems S. A., Barcelona, Spain).
To perform OGTT, mice were fasted overnight, divided into 2 groups and then administered a vehicle control and 5 mg/kg borapetoside C. This was followed by administration of a glucose solution at 2 g/kg via tube feeding. Blood samples were withdrawn from the orbital vascular plexus at intervals of 30, 60, 120, and 150 min after glucose administration. For the ITT, mice were fasted for 3 h. Human insulin (Insulin Actrapid) HM; Novo Nordisk, Denmark) was injected intraperitoneally after an intraperitoneal administration of 0.1 mg/kg borapetoside C for 30 min. Blood samples were collected from the orbital vascular plexus at the timed intervals mentioned above.
Therefore, the effects of borapetoside C on insulin tolerance were tested in this study. The non-diabetic, T1DM, and T2DM mice were injected with insulin at various doses (i.e., 0.1 IU/kg, 0.5 IU/kg, and 1.0 IU/kg) in conjunction with either borapetoside C (0.1 mg/kg) or a vehicle control (Table 3), and their plasma glucose levels were examined before and 30 min after insulin injection. The activity of lowering plasma glucose levels (AL) was calculated by the formula: (Gi−Gt)/Gi×100%, where the Gi was the initial glucose concentration and G1 was the plasma glucose concentration after 30-min treatment with insulin. Insulin reduced the plasma glucose levels in both normal and diabetic mice, and the glucose levels were further decreased when insulin was co-administered with borapetoside C to the mice.

Assay [3] deals with skeletal muscle of normal, T1DM and T2DM mice. Nature of the assay: Glycogen content in skeletal muscle after borapetoside C and insulin. Type of assay: in vivo, ICR mice. The conditions noted are these: for Glycogen content in skeletal muscle: BoC 0.1 mg/kg i.p. 30 min before insulin, 30 min after insulin injection. On the procedure: as §1
Glycogen content of skeletal muscles was measured by a known method. In brief, mice were injected with borapetoside C (5.0 mg/kg, interperitoneal) for 60 min or insulin (0.5 IU/kg, interperitoneal.) for 30 min, and the soleus muscle was isolated from anesthetized mice. About 40 mg of muscle sample was dissolved in 1 N KOH at 75° C. for 30 min. The dissolved homogenate was neutralized by glacial acetic acid and then incubated overnight in acetate buffer (0.3 M sodium acetate, pH 4.8) containing amyloglucosidase (Sigma, St. Louis, Mo.). The mixture was then neutralized with 1 N NaOH to stop the reaction. The glycogen contents in the tissue samples were determined as μg of glucose per mg of tissue (wet weight).
Both non-diabetic and diabetic mice were subjected to various doses of insulin injections at 30 min after intraperitoneal injections with borapetoside C (0.1 mg/kg) or with the vehicle. The glycogen contents in skeletal muscles were then determined at 30 min after insulin injections (Table 4). The ratios of increased glycogen content in the other groups were normalized to those of vehicle-treated group. The ratio was 119.8%, 125.3%, and 108.5% in normal, T1DM, and T2DM mice of insulin-treated group. In borapetoside C combined with insulin-treated group, it was 130.2%, 162.8%, and 122.6% in normal, T1DM, and T2DM mice. […] The increase of insulin sensitivity by borapetoside C is more prominent in diabetic mice than normal mice. Similarly, plasma glucose reduction in mice treated with insulin and borapetoside A are tested and measured.

Setting [4] is: Normal mice, insulin 0.1 IU/kg with borapetoside C 0.1 mg/kg or vehicle.
Setting [5] is: Normal mice, insulin 0.5 IU/kg with borapetoside C 0.1 mg/kg or vehicle.
Setting [6] is: Normal mice, insulin 1.0 IU/kg with borapetoside C 0.1 mg/kg or vehicle.
The mark [7] stands for this setting: T1DM mice, insulin 0.1 IU/kg with borapetoside C 0.1 mg/kg or vehicle.
Where [8] appears, read: T1DM mice, insulin 0.5 IU/kg with borapetoside C 0.1 mg/kg or vehicle.
The mark [9] stands for this setting: T1DM mice, insulin 1.0 IU/kg with borapetoside C 0.1 mg/kg or vehicle.
Setting [10] is: T2DM mice, insulin 0.1 IU/kg with borapetoside C 0.1 mg/kg or vehicle.
The mark [11] stands for this setting: T2DM mice, insulin 0.5 IU/kg with borapetoside C 0.1 mg/kg or vehicle.
[12] abbreviates: T2DM mice, insulin 1.0 IU/kg with borapetoside C 0.1 mg/kg or vehicle.

For `C[C@@]12C[C@@H](c3ccoc3)OC(=O)[C@@H]1C[C@@H]1OC(=O)[C@@]3(O)[C@@H](O[C@@H]4O[C@H](CO)[C@@H](O)[C@H](O)[C@H]4O)CC[C@@H]2[C@@]13C` [Borapetoside A, borapetoside A], the “glycogen content in liver” value in assay [1] (mice with type 1 DM) is listed as 196.9±15.6 % of vehicle control; in assay [1] (mice with type 2 DM), 146.1±12.0 % of vehicle control; in assay [1] (normal mice) it was 257.8±15.8 % of vehicle control.

“Insulin: human insulin, Insulin Actrapid HM, a short-acting insulin provided by Novo Nordisk [reference compound]”: the “glycogen content in liver” value in assay [1] (mice with type 2 DM) is “failed to enhance”. The “AL (activity of lowering plasma glucose levels)” value in assay [2] (setting [4]) amounted to 14.6 ± 0.8%; in assay [2] (setting [5]) it was 37.5 ± 1.1%; in assay [2] (setting [6]), 56.8 ± 1.9%; in assay [2] (setting [7]) it was 8.7 ± 1.6%; in assay [2] (setting [8]), 11.5 ± 0.6%; in assay [2] (setting [9]), 24.0 ± 1.3%. In addition, the “AL (activity of lowering plasma glucose levels)” value in assay [2] (setting [10]) was found to be 19.5 ± 1.5%; in assay [2] (setting [11]), 27.5 ± 2.6%; in assay [2] (setting [12]) it was 32.0 ± 1.1%. Also, the “Glycogen content in skeletal muscle” value is recorded as 38.1 ± 0.3 μg of glucose per mg of tissue (wet weight) in assay [3] (Normal mice), 38.1 ± 2.3 μg of glucose per mg of tissue (wet weight) in assay [3] (T1DM mice) and 35.5 ± 1.1 μg of glucose per mg of tissue (wet weight) in assay [3] (T2DM mice). Also, the “ratio of glycogen content normalized to vehicle-treated group” value is on record as 125.3% in assay [3] (T1DM mice), 108.5% in assay [3] (T2DM mice) and 119.8% in assay [3] (normal mice).

For the compound `COC(=O)C1=CCC[C@H]2[C@]3(C)C[C@@H](c4ccoc4)OC(=O)[C@@H]3C[C@@H](O[C@@H]3O[C@H](CO)[C@@H](O)[C@H](O)[C@H]3O)[C@@]12C` [Borapetoside C, borapetoside C], the “AL (activity of lowering plasma glucose levels)” value in assay [2] (setting [4]) is given as 17.2 ± 1.2%; in assay [2] (setting [5]) it was 45.7 ± 3.7%; in assay [2] (setting [6]), 64.7 ± 1.8 %; in assay [2] (setting [7]) it was 10.5 ± 1.4%; in assay [2] (setting [8]) it was 18.9 ± 2.1%; in assay [2] (setting [9]) it was 32.2 ± 2.1 %. The “AL (activity of lowering plasma glucose levels)” value was determined as 24.0 ± 1.1% in assay [2] (setting [10]), 31.6 ± 1.6% in assay [2] (setting [11]) and 42.5 ± 0.8 % in assay [2] (setting [12]). The entries for the “Glycogen content in skeletal muscle” value in assay [3] (Normal mice), in assay [3] (T1DM mice) and in assay [3] (T2DM mice) were 32.7 ± 0.7 μg of glucose per mg of tissue (wet weight), 30.0 ± 1.2 μg of glucose per mg of tissue (wet weight) and 30.7 ± 1.3 μg of glucose per mg of tissue (wet weight), respectively.
